From US20230181601A1, “TREATMENT OF NON-ALCOHOLIC STEATOHEPATITIS (NASH)” (DURECT CORPORATION, priority 2020, published 2023)

Assays:
[1] = Metabolite profiling of plasma, urine and feces after intravenous dose; type: in vivo, male Sprague Dawley rats; details: intravenous 10 mg/kg
Procedure: Nine male Sprague Dawley rats (Group 1) were designated for the pharmacokinetic phase, 3 male Sprague Dawley rats (Group 2) for the excretion mass balance phase, and 7 male Sprague Dawley rats (Group 3) and 9 male Long Evans rats (Group 4) for the tissue distribution phase. All animals received a single intravenous dose of [^14C]-25HC3S at 10 mg/kg and a target radioactivity of 225 μCi/kg. Blood samples were collected from all Group 1 animals at approximately 0.083, 0.25, 0.5, 1, 2, 4, 8, 12, 24, 48, and 72 hours post-dose. Urine and feces were collected from all Group 2 animals periodically through 168 hours post-dose. […] Following blood collection, animals were euthanized by CO2 inhalation and carcasses frozen in a dry ice/hexane bath for processing by quantitative whole body autoradiography. Whole blood, plasma, urine, feces, cage rinse, and cage wash were analyzed for total radioactivity by liquid scintillation counting.

[2] = Single oral dose safety and pharmacokinetic study in NASH and healthy subjects; type: in vivo, human; details: for Cmax: read-out: Cmax
Procedure: The present Example was a randomized, dose ranging, single dose safety and pharmacokinetic study of 25HC3S administered to subjects with NASH and control healthy subjects. […] For each cohort, 10 subjects with NASH were enrolled which were further classified into cirrhotic and non-cirrhotic. Each subject received only one dose of study treatment. The second cohort was dosed after a review of safety and tolerability data from Cohort 1.

[3] = tested on: NASH patients; details: 50 mg vs 200 mg oral; cited from earlier work
[4] = Phase 1b study in NASH patients: pharmacokinetics; type: in vivo, human; details: for CL/F / AUC(0-t) / Cmax / Tmax / half-life: NASH patients, mean (standard deviation); for AUC(0-t) / Cmax / Tmax / half-life: both sexes, human, plasma
Description: A total of 63 patients completed the study with 21 patients per dose group (completion of MRI-PDFF measurement). […] Subjects provided written informed consent to participate in the study • 2. Males or females subjects 18 years or older, at the time of signing informed consent • 3. BMI 20-45 kg/m^2 • 4. […] Value of Fibroscan® ≥7 kPa • OR • b. MRE≥2.75 kPa • *Clinical diagnosis of NASH was defined in this clinical trial as the existence of one or more of the following risk factors for NASH, namely: • a. Type 2 diabetes or elevated fasting blood sugar • b. Abdominal obesity • c. Elevated lipid levels, especially elevated levels of serum triglycerides • d. Hypertension, or • e. Low levels of HDL cholesterol • 5. For serum transaminases, ALT concentration for all patients at the time of screening was >1 and <5 times upper limit of normal (ULN) of the central lab in the absence of another cause of liver disease. If a patient had lab records in the past 6 months, ALT concentrations were <20 U/L female and <30 U/L male. AST concentration for all patients at the time of screening was <5x ULN • 6. […] Platelet counts ≥120,000/mm^3 • 8. Female subjects were eligible for the study if they met the following criteria: • Are not pregnant or nursing • Women of child-bearing potential (defined as females who are not surgically sterile or who are not over the age of 52 and amenorrheic for at least 12 months) must utilize appropriate birth control throughout the study duration. Acceptable methods that may be used are abstinence, birth control pills (“The Pill”) or patch, diaphragm, IUD (coil), vaginal ring, condom, surgical sterilization or progestin implant or injection, or sexual activity limited to a sterile (e.g., vasectomized) male partner • 9. Male participants agreed to consistently and correctly use a condom in combination with one of the above methods of birth control from enrolment to 30 days after the last dose of study medication • 10. Participants were able to comply with dosing and able to complete the study schedule of assessments
The pharmacokinetics of administered 25HC3S was determined.

[5] = tested on: patients with Non-Alcoholic Steatohepatitis (NASH); test: Phase 1b study in NASH patients: safety; type: in vivo, human; details: all three doses (50 mg, 150 mg, 600 mg daily), 4 weeks oral
Description: A total of 63 patients completed the study with 21 patients per dose group (completion of MRI-PDFF measurement). […] Subjects provided written informed consent to participate in the study • 2. Males or females subjects 18 years or older, at the time of signing informed consent • 3. BMI 20-45 kg/m^2 • 4. […] Value of Fibroscan® ≥7 kPa • OR • b. MRE≥2.75 kPa • *Clinical diagnosis of NASH was defined in this clinical trial as the existence of one or more of the following risk factors for NASH, namely: • a. Type 2 diabetes or elevated fasting blood sugar • b. Abdominal obesity • c. Elevated lipid levels, especially elevated levels of serum triglycerides • d. Hypertension, or • e. Low levels of HDL cholesterol • 5. For serum transaminases, ALT concentration for all patients at the time of screening was >1 and <5 times upper limit of normal (ULN) of the central lab in the absence of another cause of liver disease. If a patient had lab records in the past 6 months, ALT concentrations were <20 U/L female and <30 U/L male. AST concentration for all patients at the time of screening was <5x ULN • 6. […] Platelet counts ≥120,000/mm^3 • 8. […]

C[C@H](CCCC(C)(C)O)[C@H]1CC[C@H]2[C@@H]3CC=C4C[C@@H](OS(=O)(=O)O)CC[C@]4(C)[C@H]3CC[C@]12C [25HC3S, 5-cholesten-3,25-diol, 3-sulfate]
% of dose in feces ([1]; pools 0 to 48 hours postdose): 2 % of dose | share of the exposure (AUC) to 25HC3S related radioactivity in plasma ([1]; up to 1 hour postdose): approximately 54% | difference in pharmacokinetics between healthy subjects and NASH patients ([2]; 50 mg and 200 mg single oral dose): no clear difference in pharmacokinetics | CL/F ([2]; 200 mg single oral dose, Healthy, Mean): 171.25 ± 28.60 L/h | time post-dose up to which plasma levels were detectable ([2]; Cohort 1 (50 mg) healthy subjects): up to 12 hours | AUC0-inf, higher in NASH than healthy subjects ([2]; Cohort 2 (200 mg)): approximately 20% | geometric mean AUC0-12 and AUC0-last, higher in NASH than healthy subjects ([2]; Cohort 2 (200 mg)): approximately 30% | time post-dose up to which plasma levels were detectable ([2]; Cohort 2 (200 mg) healthy subjects): up to 16 hours | increase of geometric mean Cmax in NASH over healthy subjects ([2]; Cohorts 1 and 2): 18-24% | exposure (AUC parameters), potential increasing trends in NASH subjects ([2]; NASH vs healthy): up to 31% | half-life ([2]; human, plasma, oral, across both healthy and NASH subject groups, 50 mg and 200 mg, read-out: T1/2, range of mean values): 1.67 to 2.51 h | Cmax ([2]; human, plasma, 50 mg single oral dose, Healthy, Mean): 94 ± 27.3 ng/mL | Cmax ([2]; human, plasma, 200 mg single oral dose, Healthy, Mean): 260 ± 54.8 ng/mL | dose dependence of biological responses [3]: no dose-dependent changes of biological responses | CL/F ([4]; 50 mg QD oral): 150.6 (51.5) L/h | CL/F ([4]; 150 mg QD oral): 176.6 (80.5) L/h | CL/F ([4]; 300 mg BID oral): 166.2 (60.4) L/h | AUC(0-t) ([4]; 50 mg QD oral): 340 ng·h/mL | Cmax ([4]; 50 mg QD oral): 79.1 ng/mL | Tmax ([4]; 50 mg QD oral): 2.4 h | half-life ([4]; 50 mg QD oral): 2.7 h | AUC(0-t) ([4]; 150 mg QD oral): 1040 ng·h/mL | Cmax ([4]; 150 mg QD oral): 274 ng/mL | Tmax ([4]; 150 mg QD oral): 2 h | half-life ([4]; 150 mg QD oral): 2.7 h | AUC(0-t) ([4]; 300 mg BID oral): 2140 ng·h/mL | Cmax ([4]; 300 mg BID oral): 430 ng/mL | Tmax ([4]; 300 mg BID oral): 2.3 h | half-life ([4]; 300 mg BID oral): 2.4 h | PK parameters after repeat dosing ([4]; repeat vs single dose): comparable to those after a single dose and were dose dependent | tolerability, drug related serious adverse events [5]: well tolerated at all three doses with no drug related serious adverse events observed
